Earlier results in patent US10815228B2, “Aztreonam derivatives and uses thereof” (ARIXA PHARMACEUTICALS, INC., priority 2017, dated 2020).

What does the source list for `C[C@H]1[C@H](NC(=O)/C(=N/OC(C)(C)C(=O)O)c2csc(N)n2)C(=O)N1S(=O)(=O)O` [aztreonam, (2-((((E)-1-(2-aminothiazol-4-yl)-2-(((2S,3S)-2-methyl-4-oxo-1-sulfoazetidin-3-yl)amino)-2-oxoethylidene)amino)oxy)-2-methylpropanoic acid)]?
oral bioavailability (aztreonam, statement in words): poor oral bioavailability; oral bioavailability of aztreonam (orally administered aztreonam): less than 1%
